Here are results for six molecules from patent US20200148646A1, “6-S[…] 7-S[…] ANALOGS AND THE USE THEREOF” (Purdue Pharma, L.P., priority 2013, published 2020).

In experiment [1] the target is T1, human κ opioid receptor (Homo sapiens, UniProt P41145). As to the kind of experiment: κ-opioid receptor radioligand ([3H]-U69,593) dose-displacement binding assay, HEK-293 or CHO cells. Set-up: expressed in transfected cells; host or cells: HEK-293 cells (in-house prep). As to the method:
Membranes from recombinant HEK-293 cells expressing the human K opioid receptor (cloned in house) were prepared by lysing cells in ice cold hypotonic buffer (2.5 mM MgCl2, 50 mM HEPES, pH 7.4) (10 mL/10 cm dish) followed by homogenization with a tissue grinder/Teflon pestle. Membranes were collected by centrifugation at 30,000×g for 15 min at 4° C. and pellets were resuspended in hypotonic buffer to a final concentration of 1-3 mg/mL. Protein concentrations were determined using the BioRad protein assay reagent with bovine serum albumen as standard. Aliquots of κ receptor membranes were stored at −80° C.
Radioligand dose displacement assays used 0.4 nM [^3H]-U69,593 (GE Healthcare, Piscataway, N.J.; 40 Ci/mmole) with 15 μg membrane protein (recombinant K opioid receptor expressed in HEK 293 cells; in-house prep) in a final volume of 200 μl binding buffer (5% DMSO, 50 mM Trizma base, pH 7.4). Non-specific binding was determined in the presence of 10 μM unlabeled naloxone or U69,593. All reactions were performed in 96-well polypropylene plates for 1 hr at a temperature of about 25° C. Binding reactions were terminated by rapid filtration onto 96-well Unifilter GF/C filter plates (Perkin Elmer, Shelton, Conn.) presoaked in 0.5% polyethylenimine (Sigma). Harvesting was performed using a 96-well tissue harvester (Perkin Elmer, Shelton, Conn.) followed by five filtration washes with 200 μl ice-cold binding buffer. Filter plates were subsequently dried at 50° C. for 1-2 hours. Fifty μl/well scintillation cocktail (Perkin Elmer, Shelton, Conn.) was added and plates were counted in a Packard Top-Count for 1 min/well.
(§1) In TABLE 1, binding affinity of certain Compounds of the Invention to the μ-, and κ-opioid receptors in HEK-293 or CHO cells was determined as described above.

For experiment [2], the target named is T2, μ-opioid receptor (Homo sapiens, UniProt P35372). Nature of the experiment: μ-opioid receptor radioligand ([3H]-diprenorphine) dose-displacement binding assay, HEK-293 or CHO cells. As to the method:
Radioligand dose-displacement binding assays for μ-opioid receptors used 0.3 nM [^3H]-diprenorphine (Perkin Elmer, Shelton, Conn.), with […] membrane protein/well in a final volume of 500 μl binding buffer (10 mM MgCl2, 1 mM EDTA, 5% DMSO, 50 mM HEPES, pH 7.4). Reactions were carried out in the absence or presence of increasing concentrations of unlabeled naloxone. All reactions were conducted in 96-deep well polypropylene plates for 2 hr at room temperature. Binding reactions were terminated by rapid filtration onto 96-well Unifilter GF/C filter plates (Perkin Elmer, Shelton, Conn.), presoaked in 0.5% polyethylenimine using a 96-well tissue harvester (Perkin Elmer, Shelton, Conn.) followed by performing three filtration washes with 500 μl of ice-cold binding buffer. Filter plates were subsequently dried at 50° C. for 2-3 hours. BetaScint scintillation cocktail (Perkin Elmer, Shelton, Conn.) was added (50 l/well), and plates were counted using a Packard Top-Count for 1 min/well. The data were analyzed using the one-site competition curve fitting functions in GraphPad PRISM™ v. 3.0 or higher (San Diego, Calif.), or an in-house function for one-site competition curve-fitting.
as §1

Experiment [3] concerns the target T2, μ-opioid receptor. As to the kind of experiment: μ-opioid receptor [35S]GTPγS functional assay, HEK-293 or CHO cells. To be noted: for Emax: HEK-293 or CHO cells, relative to DAMGO. Format: biochemical. The method, boiled down:
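Agonist-stimulated [35S]GTPγS binding to recombinant μ-receptor membranes (HEK-293 or CHO) with 0.20 nM [35S]GTPγS, […] and saponin, pH 7.4, 30 min at about 25 °C, then filtration and scintillation counting. EC50 from sigmoidal fits; Emax relative to DAMGO.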
In general terms: GTPγS resists hydrolysis and so accumulates on activated G proteins.

The target in experiment [4] is T1, human κ opioid receptor. Nature of the experiment: κ-opioid receptor [35S]GTPγS functional assay, HEK-293 or CHO cells. The format is biochemical. Set-up: expressed in transfected cells. The settings on record: for Emax: HEK-293 or CHO cells, relative to U69,593. As to the method:
Membranes from recombinant HEK-293 cells, CHO or U-2 OS cells expressing the recombinant human K opioid receptor (K) were prepared by lysing cells in ice cold hypotonic buffer (2.5 mM MgCl2, 50 mM HEPES, pH 7.4) (10 mL/10 cm dish) followed by homogenization with a tissue grinder/Teflon pestle. Functional [^35S]GTPγS binding assays were conducted as follows. K opioid receptor membrane solution was prepared by sequentially adding final concentrations of 0.026 μg/μl κ membrane protein (in-house), 10 μg/mL saponin, 3 μM GDP and 0.20 nM [^35S]GTPγS to binding buffer (100 mM NaCl, 10 mM MgCl2, 20 mM HEPES, pH 7.4) on ice. The prepared membrane solution (190 μl/well) was transferred to 96-shallow well polypropylene plates containing 10 μl of 20× concentrated stock solutions of agonist prepared in DMSO. Plates were incubated for 30 min at a temperature of about 25° C. with shaking. Reactions were terminated by rapid filtration onto 96-well Unifilter GF/B filter plates (Perkin Elmer, Shelton, Conn.) using a 96-well tissue harvester (Packard) and followed by three filtration washes with 200 μl ice-cold binding buffer (10 mM NaH2PO4, 10 mM Na2HPO4, pH 7.4). Filter plates were subsequently dried at 50° C. for 2-3 hours. Fifty μl/well scintillation cocktail (Perkin Elmer, Shelton, Conn.) was added and plates were counted in a Packard Top-Count for 1 min/well.
κ GTP EC50 is the concentration of a compound providing 50% of the maximal response for the compound at a κ receptor.
κ GTP Emax (%) is the maximal effect elicited by a compound relative to the effect elicited by U69,593.
In TABLE 2, activity response of certain Compounds of the Invention at the μ- and κ-opioid receptors using HEK-293 or CHO cells was determined as described above for functional assays.

Experiment [5] has as its target T2, μ-opioid receptor. As to the kind of experiment: μ-opioid receptor [35S]GTPγS functional assay, U-2 OS cells. Set-up: host or cells: U-2 OS cells. The format is biochemical. The settings on record: for Emax: U2-OS cells, relative to DAMGO. The method, boiled down:
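U-2 OS membranes expressing recombinant human μ-receptor (0.026 mg/mL) were incubated with compound, […], saponin and [35S]GTPγS 0.20 nM in HEPES/NaCl/MgCl2 buffer pH 7.4 for 30 min at about 25° C. Filter-bound radioactivity gave sigmoidal fits for EC50; Emax is relative to DAMGO.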

Experiment [6] has as its target T1, human κ opioid receptor. As to the kind of experiment: κ-opioid receptor [35S]GTPγS functional assay, U-2 OS cells. The format is biochemical. Set-up: expressed in transfected cells; host or cells: U-2 OS cells (in-house membranes). To be noted: for Emax: U2-OS cells, relative to U69,593. In a few lines:
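Membranes from U-2 OS cells expressing human κ receptor (0.026 μg/μl protein) were incubated with agonist, 10 μg/mL saponin, 3 μM GDP and 0.20 nM [35S]GTPγS in pH 7.4 HEPES buffer for 30 min at about 25 °C. Bound radioactivity was measured after filtration. EC50 was taken at half-maximal response; Emax is relative to U69,593.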

T1 sequence (P41145 whole entry): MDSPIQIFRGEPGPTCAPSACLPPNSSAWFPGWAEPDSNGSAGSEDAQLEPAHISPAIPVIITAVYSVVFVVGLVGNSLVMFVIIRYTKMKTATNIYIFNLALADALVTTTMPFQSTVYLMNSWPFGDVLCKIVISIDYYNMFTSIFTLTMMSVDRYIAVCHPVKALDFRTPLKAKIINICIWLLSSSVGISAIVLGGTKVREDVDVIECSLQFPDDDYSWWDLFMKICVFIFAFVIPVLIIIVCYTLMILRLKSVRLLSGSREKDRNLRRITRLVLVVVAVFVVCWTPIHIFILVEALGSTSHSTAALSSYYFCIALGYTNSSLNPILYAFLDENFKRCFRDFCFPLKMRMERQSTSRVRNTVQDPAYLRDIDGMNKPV
T2 sequence (P35372 whole entry, species assumed): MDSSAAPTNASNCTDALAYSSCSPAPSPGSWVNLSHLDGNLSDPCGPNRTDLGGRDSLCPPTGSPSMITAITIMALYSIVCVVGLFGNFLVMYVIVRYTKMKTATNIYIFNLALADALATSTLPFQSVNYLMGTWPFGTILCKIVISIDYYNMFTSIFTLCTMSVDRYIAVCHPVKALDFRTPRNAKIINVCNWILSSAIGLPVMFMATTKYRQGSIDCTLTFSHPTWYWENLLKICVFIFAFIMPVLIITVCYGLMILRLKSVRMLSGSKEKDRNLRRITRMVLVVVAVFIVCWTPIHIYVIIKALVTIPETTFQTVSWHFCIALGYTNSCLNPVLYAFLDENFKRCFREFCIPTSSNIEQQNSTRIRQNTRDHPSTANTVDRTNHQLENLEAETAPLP

The Ki is the equilibrium dissociation constant of an inhibitor or competing ligand from its target. A high value points to lower affinity. The term EC50 denotes the midpoint of the concentration-response curve. Higher therefore signals a need for much substance. The Emax is the maximal effect, on the per cent scale that the assay sets. Regarding `COc1ccc2c(c1)[C@]13CCN(CC4CC4)[C@H](C2)[C@]1(O)CC[C@H](O)C3` [Compound 4, (4bR,6S,8aS,9R)-11-(cyclopropylmethyl)-3-methoxy-5,6,7,8,9,10-hexahydro-8aH-9,4b-(epiminoethano)phenanthrene-6,8a-diol], the Ki on human κ opioid receptor [1] turned out to be 172 ± 12.8 nM; on μ-opioid receptor [2], 4590 ± 356 nM. Besides, the figures for the EC50 on μ-opioid receptor [3] and on human κ opioid receptor [4] were 6140 nM and 7860 nM, respectively. The Emax at μ-opioid receptor [3] was determined as 33.7 ± 2.96%; on human κ opioid receptor [4] it was 55.8 ± 5.88%.
On μ-opioid receptor [5], `COc1ccc2c(c1)[C@]13CCN(CC4CC4)[C@H](C2)[C@]1(O)CC[C@@H](CC(=O)O)C3` [Compound 9, 2-((4bS,6R,8aS,9R)-11-(cyclopropylmethyl)-8a-hydroxy-3-methoxy-6,7,8,8a,9,10-hexahydro-5H-9,4b-(epiminoethano)phenanthren-6-yl)acetic acid] came in with an EC50 of 574 ± 87.2 nM and an Emax of 36.3 ± 0.88%. The molecule further registered a Ki on human κ opioid receptor [1] of 597 ± 163 nM. The EC50 at human κ opioid receptor [4] came to 597 ± 163 nM.
In the case of `CC(=O)N[C@H]1C[C@@]2(O)[C@H]3Cc4ccc(O)cc4[C@@]2(CCN3CC2CC2)C[C@H]1O` [Compound 55, N-((4bR,6R,7S,8aS,9R)-11-(cyclopropylmethyl)-3,6,8a-trihydroxy-6,7,8,8a,9,10-hexahydro-5H-9,4b-(epiminoethano)phenanthren-7-yl)acetamide], the EC50 on μ-opioid receptor [5] was above 20000 nM; on human κ opioid receptor [6], 194 ± 54.4 nM; at μ-opioid receptor [3], above 20000 nM; on human κ opioid receptor [4] it was 203 ± 20.2 nM. In addition, the Emax on μ-opioid receptor [5] came to 4%; on human κ opioid receptor [6], 77.7 ± 5.49%; on μ-opioid receptor [3], 1%; at human κ opioid receptor [4] it was 13.3 ± 0.88%. The Ki at human κ opioid receptor [1] came to 54.8 ± 8.83 nM; at μ-opioid receptor [2], 201 ± 62.1 nM.
Take `CCC(=O)N[C@H]1C[C@@]2(O)[C@H]3Cc4ccc(O)cc4[C@@]2(CCN3CC2CC2)C[C@H]1O` [Compound 56, N-((4bR,6R,7S,8aS,9R)-11-(cyclopropylmethyl)-3,6,8a-trihydroxy-6,7,8,8a,9,10-hexahydro-5H-9,4b-(epiminoethano)phenanthren-7-yl)propionamide]: the EC50 was 95 ± 16.4 nM on μ-opioid receptor [5], 29.3 ± 4.34 nM on human κ opioid receptor [6], above 20000 nM on μ-opioid receptor [3] and 71.8 ± 8.76 nM at human κ opioid receptor [4]. Further, the Emax on μ-opioid receptor [5] worked out at 19.3 ± 1.45%; at human κ opioid receptor [6], 105 ± 3.38%; on μ-opioid receptor [3] it was 1%; at human κ opioid receptor [4] it was 53 ± 0.58%. For the same molecule, the Ki was found to be 7.19 ± 0.87 nM on human κ opioid receptor [1] and 54.2 ± 12.5 nM on μ-opioid receptor [2].
Regarding `CCC(=O)N[C@H]1C[C@@]2(O)[C@H]3Cc4ccc(O)cc4[C@@]2(CCN3CC2CC2)C[C@@H]1O` [Compound 57, N-((4bR,6S,7S,8aS,9R)-11-(cyclopropylmethyl)-3,6,8a-trihydroxy-6,7,8,8a,9,10-hexahydro-5H-9,4b-(epiminoethano)phenanthren-7-yl)propionamide], the EC50 was 77.7 ± 10.3 nM on μ-opioid receptor [5], 33.1 ± 3.53 nM at human κ opioid receptor [6], above 20000 nM at μ-opioid receptor [3] and 26.1 ± 6.87 nM on human κ opioid receptor [4]. The maximal effect (Emax) stood at 9 ± 0.58% at μ-opioid receptor [5], 113 ± 5.86% at human κ opioid receptor [6], 1.5% at μ-opioid receptor [3] and 37.2 ± 3.07% at human κ opioid receptor [4]. The results for the Ki at human κ opioid receptor [1] and on μ-opioid receptor [2] were 16.7 ± 2.61 nM and 44.9 ± 7.71 nM, respectively.
In the case of `CC(C)CCCC(=O)N[C@H]1C[C@@]2(O)[C@H]3Cc4ccc(O)cc4[C@@]2(CCN3CC2CC2)CC1O` (stereo partly drawn) [Compound 63, N-((4bR,7S,8aS,9R)-11-(cyclopropylmethyl)-3,6,8a-trihydroxy-6,7,8,8a,9,10-hexahydro-5H-9,4b-(epiminoethano)phenanthren-7-yl)-5-methylhexanamide], the EC50 at μ-opioid receptor [5] was found to be 63.2 ± 8.31 nM; at human κ opioid receptor [6], 38.8 ± 7.82 nM; at μ-opioid receptor [3] it was 81.2 ± 8.25 nM; on human κ opioid receptor [4], 23 ± 4.32 nM. In addition, the Emax at μ-opioid receptor [5] came out at 58.7 ± 1.33%; at human κ opioid receptor [6], 84.3 ± 1.67%; on μ-opioid receptor [3], 23.3 ± 1.33%; on human κ opioid receptor [4] it was 21.2 ± 0.44%. Further, the Ki on human κ opioid receptor [1] came out at 11.5 ± 0.97 nM.
